Where “and” joins values, the source holds several entries; their conditions need not be identical. Identical values can stand only once.
Columns and labels:
MDA-MB-231 = assay: Cell growth inhibition assay (resazurin, 48 h); type: cell-based, human; details: MDA-MB-231, 48 h
PANC-1 = assay: Cell growth inhibition assay (resazurin, 48 h); type: cell-based; details: Homo sapiens, PANC-1, 48 h
NF-κB/Luc 293 cells = assay: Viability of NF-κB/Luc 293 cells (resazurin, 24 hr); type: cell-based, human; details: ~7 nM
[1] = test system: MM.1R and Doxorubicin-resistant Dox-40 cell lines
[2] = biological target: T1, human erythrocyte proteasomes, Caspase-like activity (Homo sapiens, UniProt P28072); assay: Caspase-like activity of human erythrocyte proteasomes; type: biochemical
T1 construct: from tissue; host or cells: human erythrocytes

PARP = PARP cleavage in Jurkat cells (western blot); type: cell-based, human; details: 100 nM Salinosporamide A or 350 nM Staurosporine
HEK293 = assay: Cell growth inhibition assay (resazurin, 48 h); type: cell-based; details: Homo sapiens, HEK293, 48 h
[3] = biological target: T2, 20S proteasome chymotrypsin-like activity in PC-3 cells (Homo sapiens, UniProt P28074); assay: Chymotrypsin-like activity of 20S proteasomes in treated PC-3 cells; type: cell-based; details: 5 nM, 1 hr
T2 construct: PC-3 (ATCC, CRL-1435), the human prostate cancer cell line; host or cells: PC-3
T2 sequence (P28074 60-263): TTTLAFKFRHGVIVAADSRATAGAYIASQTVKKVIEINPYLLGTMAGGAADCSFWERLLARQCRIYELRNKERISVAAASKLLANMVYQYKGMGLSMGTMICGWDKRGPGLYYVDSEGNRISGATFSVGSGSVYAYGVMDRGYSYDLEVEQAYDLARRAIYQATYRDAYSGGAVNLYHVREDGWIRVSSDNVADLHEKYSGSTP
Protocol: PC-3 (ATCC, CRL-1435), the human prostate cancer cell line, was cultured in F12K medium supplemented with 2 mM L-glutamine, 100 units/ml penicillin, 100 μg/ml streptomycin and 10% heat inactivated fetal bovine serum at 37° C., 5% CO2 and 95% humidified air. […] DMSO was used as the vehicle control at a final concentration of 0.1%. Following 1 hr incubation of PC-3 cells with the compounds, the cells were washed 3× with ice-cold 1× Dulbecco's Phosphate-Buffered Saline (DPBS, Mediatech, Herndon, Va.). […] Cell debris was pelleted by centrifugation at 14,000 rpm for 10 min, 4° C. and supernatants (=cell lysates) were transferred to a new tube. Protein concentration was determined by the BCA protein assay kit (Pierce Biotechnology, Rockford, Ill.). […] The released coumarin (AMC) was measured fluorometrically by using λex=390 nm and λem=460 nm. The assay was performed in a microtiter plate (Corning 3904) and followed kinetically with measurements every five minutes for 2 hr. The total amount of protein used for each assay was 20 μg. The final concentration of Suc-LLVY-AMC and DMSO was 20 μM and 0.2%, respectively. Results are presented as the percent inhibition of the 20S proteasome chymotrypsin-like activity relative to the DMSO control.

DU 145 = assay: Cell growth inhibition assay (resazurin, 48 h); type: cell-based, human
PC-3 = assay: Cell growth inhibition assay (resazurin, 48 h)
OVCAR-3 = assay: Cell growth inhibition assay (resazurin, 48 h); type: cell-based, human; details: OVCAR-3, 48 h
HT-29 = assay: Cell growth inhibition assay (resazurin, 48 h); type: cell-based, human; details: HT-29, 48 h
Protocol: RPMI 8226 (CCL-155), HT-29 (HTB-38), and B16-F10 (CRL-6475) cells were purchased from ATCC. RPMI 8226 cells were maintained in RPMI 1640 media supplemented with 10% (v/v) FBS, 2 mM L-glutamine, 1 mM sodium pyruvate and Penicillin/Streptomycin at 100 IU/ml and 100 μg/ml, respectively. HT-29 cells were maintained in McCoys 5A supplemented with 10% (v/v) FBS, 2 mM L-glutamine, 1 mM sodium pyruvate, 1% (v/v) non-essential amino acids, 10 mM HEPES and Penicillin/Streptomycin at 100 IU/ml and 100 μg/ml, respectively. B16-F10 cells were maintained in DMEM supplemented with 10% (v/v) FBS, 2 mM L-glutamine, 10 mM HEPES and Penicillin/Streptomycin at 100 IU/ml and 100 μg/ml, respectively.
RPMI 8226 cells were seeded at 2×10^4 cells/well in 90 μl RPMI media containing 10% (v/v) FBS or 1% (v/v) FBS into 96 well black-walled, clear-bottom tissue culture plates. […] Formulae II-16, II-17 and Formula II-18 were serially diluted in media containing 1% or 10% FBS and added in triplicate to the test wells. […] The final concentration of Formula II-18 ranged from 2 μM to 630 pM.

LogD7.4 determination = details: pH 7.4
Description: These studies consisted of solubility assessment, LogD^7.4 determination and a preliminary screen to detect cytochrome P450 enzyme inhibition.

[4] = biological target: T3, human erythrocyte proteasomes, Trypsin-like activity (Homo sapiens, UniProt Q99436); assay: Trypsin-like activity of human erythrocyte proteasomes; type: biochemical
T3 construct: from tissue; host or cells: human erythrocytes

Compound: C[C@@]12OC(=O)[C@]1([C@@H](O)[C@@H]1C=CCCC1)NC(=O)[C@@H]2CCCl [Formula II-16, Salinosporamide A]
- EC50 (MDA-MB-231; Homo sapiens): 67 nM
- EC50 (MDA-MB-231): 87 ± 40 nM
- EC50 (PANC-1): 60 nM
- cell viability at the NF-κB EC50 concentration (NF-κB/Luc 293 cells): did not affect cell viability
- activity against drug resistant multiple myeloma [1]: active against MM.1R and Doxorubicin-resistant Dox-40 cell lines
- EC50 [2]: ~390 nM
- cleavage of PARP (PARP): cleavage of PARP within the Jurkat cells in a time-dependent fashion
- EC50 (HEK293): 47 nM
- % inhibition of the chymotrypsin-like activity of 20S proteasomes in PC-3 cell lysates [3]: 69%
- EC50 (RAW264.7 cells): 3.6 nM
- increase in the viability of LeTx-treated cells compared to LeTx treatment alone (RAW264.7 cells): 10 fold
- % cytotoxicity (DU 145; DU 145): 75 ± 4%
- EC50 (DU 145; Homo sapiens, DU 145, 48 h): 37 ± 10 nM
- % cytotoxicity (PC-3; PC-3): 88% and 89%
- EC50 (PC-3; PC-3, 48 h): 64 ± 26 nM
- EC50 (OVCAR-3; Homo sapiens): 69 nM
- EC50 (OVCAR-3): 49 ± 31 nM
- EC50 (HT-29): 40 ± 26 nM
- EC50 (HT-29; Homo sapiens): 47 nM
- LogD7.4 (LogD7.4 determination): 2.4
- EC50 [4]: ~9 nM

Source: US7579371B2, “Methods of using [3.2.0] heterocyclic compounds and analogs thereof” (Nereus Pharmaceuticals, Inc., priority 2004, dated 2009)
